Results on two molecules are retold here after patent US11572351B1, “Bis-Schiff base compositions and formulations” (Systima Technologies, Inc., priority 2016, dated 2023).

A short description of series [1]: Melt viscosity versus temperature, parallel plate rheometer, temperature ramp. The class given is physicochemical. The note with it: ramp 2° C. per minute, strain 0.01%, 10.00 rad/s; processing window about 100° C. up to at least 200° C. The method, then: (§1) In some embodiments, the chemical composition may have a low viscosity, such as below about 100,000 cP at temperatures below 170° C. The viscosity may be measured by rotational rheometry by acquiring viscosity versus temperature curves on a parallel plate rheometer, commercially available from TA Instruments (New Castle, Del.) at a controlled strain of 0.01% and an angular frequency of 10.00 radians per second (rad/s) by heating samples at a rate of 2° C. per minute to the isothermal temperature specified. In one or more embodiments, the chemical composition may have a melt viscosity of less than or equal to 500 cP at 125° C. as measured by rotation rheometry. In one or more embodiments, the chemical composition may have a melt viscosity of less than or equal to 100,000 cP at 125° C. as measured by rotation rheometry. For instance, the chemical composition may have a melt viscosity of from 10,000 to 100,000 cP, from 40,000 to 80,000 cP, or from 20,000 to 50,000 cP at 125° C. In some particular embodiments, the chemical composition may have an extremely low viscosity at less than 200° C., such as less than 500 cP. In some particular embodiments, the chemical composition may have a melt viscosity of from 100 to 500 cP, from 200 to 400 cP, or from 300 to 500 cP at 125° C. […]

The nature of series [2]: Viscosity stability during 4 hour isothermal dwell at 120° C., parallel plate rheometer. The class given is physicochemical. The note with it: isothermal 120° C., viscosity stayed 150 to 200 cP. The method, then:
as §1

Take `C(=N\c1ccc(Oc2cccc(Oc3ccc(/N=C/c4ccco4)cc3)c2)cc1)/c1ccco1` [Example 1]: the “viscosity (melt flow viscosity)” value in series [1] is on record as “less than 1000 cP”. Further, in series [2], the “period of time of stable low melt viscosity” value is listed as “at least 4 hours”.
The like results for `C(=N\c1cccc(Oc2cccc(Oc3cccc(/N=C/c4ccco4)c3)c2)c1)/c1ccco1` [Example 2] were, in that order, “less than 1000 cP” and “at least 4 hours”.
